26 molecules from patent US9120780B2, “Indole or indazole derivative or salt thereof” (TAIHO PHARMACEUTICAL CO., LTD., priority 2011, dated 2015) can be followed below.

Test [1] has as its target human HSP90 alpha protein (N-terminal, amino acids 2-236) (Homo sapiens (Human), UniProt P07900). The test is described as follows: Measurement of HSP90-binding activity (AlphaScreen competitive assay, biotin-labeled geldanamycin). The following applies: inhibition of biotin-labeled geldanamycin binding to purified HSP90; read-out: HSP-binding activity IC50. As to the method:
First, a solution of purified HSP90 was prepared as follows. […] The pET-HSP90N was introduced into Escherichia coli cells (BL21 (DE3), Stratagene Inc.), and then the Escherichia coli cells were cultured in the presence of 0.5 mM isopropyl-beta-D-thiogalactopyranoside (Sigma-Aldrich Corp.) at 37° C. for 4 hours. The Escherichia coli cells were collected, suspended in a lysis buffer (50 mM Tris-HCl (pH 7.5), 200 mM NaCl), and sonicated. The sonicated cell solution was centrifuged (40,000×g, 20 minutes) to obtain supernatant as a crude extract. The crude extract was fractionated by Ni Sepharose High Performance (GE Healthcare Japan Corporation) chromatography and HiLoad 26/60 Superdex 75 pg (GE Healthcare Japan Corporation), and the fraction in which HSP90 protein was concentrated was prepared so as to be a 50 mM Tris-HCl (pH 7.5)/20% glycerol solution as a purified HSP90 solution. The purified HSP90 solution was divided and stored at −80° C. until use.
The HSP90-binding activity was measured by an AlphaScreen competitive assay system. […] After reaction at room temperature for 2 hours, biotin-labeled geldanamycin was added to each reaction solution in an amount of 40 nM, followed by reaction for further 1 hour. […] After reaction in a dark place at room temperature for 1 hour, the fluorescence intensity in each well was measured with a multilabel plate reader, EnVision (Perkin Elmer, Inc.). The inhibition rate (%) of biotin-labeled geldanamycin binding by a compound of the present invention was determined by the following equation using the fluorescence signal of a test substance-free group (control) as a control. […] Inhibition rate (%)=(C−T)/C×100 T: signal in a well to which a test substance was added C: signal in a well to which no test substance was added

The test system of test [2] is SK-BR-3 cells. Put plainly: Measurement of cell growth inhibition (crystal violet staining). The following applies: Homo sapiens, 72 hours culture with test substance. The test is classed as cell-based. How it is done:
Cell growth was measured by a crystal violet staining method. […] The cells were cultured in a 5% CO2 incubator at 37° C. for 24 hours, and then test substances were added to the plate, followed by culturing for further 72 hours. […] The plate was left to stand at room temperature for 20 minutes for staining the cells. The plate was washed with water and dried, and 100 μL of a mixed solution of 0.05 M NaH2PO4 and ethanol (mixture in equal amounts) was added to each well. The absorbance at 540 nm was measured with a microplate reader (MTP-450, Corona Electric Co., Ltd.) as an index of the number of cells in each well. The inhibition rate (%) of cell growth by a compound of the present invention was determined by the following equation using the absorbance of a drug-untreated group (control) as a control. […] Inhibition rate (%)=(C−T)/C×100 T: absorbance in a well to which a test substance was added C: absorbance in a well to which no test substance was added

The IC50 is the concentration at which inhibition is half-maximal. As for `CC(C)c1nn(-c2ccc(C(N)=O)cc2NC2CCC2)c2cccc(-n3cnc(-c4cccnc4)c3)c12` [Example 11, 3-(Cyclobutylamino)-4-(3-isopropyl-4-(4-(pyridin-3-yl)-1H-imidazol-1-yl)-1H-indazol-1-yl)benzamide], the IC50 in test [1] was 0.3 µM; in test [2], 0.08 µM.

`Cc1cc(C(N)=O)ccc1-n1nc(C(C)C)c2c(-n3cnc(-c4cccnc4)c3)cccc21` [Example 4, 4-(3-Isopropyl-4-(4-(pyridin-3-yl)-1H-imidazol-1-yl)-1H-indazol-1-yl)-3-methylbenzamide]: the IC50 in test [1] was 0.16 µM; in test [2] it was 0.14 µM.

As to `CCc1cc(C(N)=O)ccc1-n1nc(C(F)(F)F)c2c(-n3cnc(-c4cccnc4)c3)cccc21` [Example 19, 3-Ethyl-4-(4-(4-(pyridin-3-yl)-1H-imidazol-1-yl)-3-(trifluoromethyl)-1H-indazol-1-yl)benzamide], the values for the IC50 in test [1] and in test [2] were 0.17 µM and 0.1 µM, respectively.

For `CC(C)Nc1cc(C(N)=O)ccc1-n1nc(C(C)C)c2c(-n3cnc(-c4cccnc4)c3)cccc21` [Example 10, 4-(3-Isopropyl-4-(4-(pyridin-3-yl)-1H-imidazol-1-yl)-1H-indazol-1-yl)-3-(isopropylamino)benzamide], the IC50 was 0.25 µM in test [1] and 0.1 µM in test [2].

For the molecule `Cc1cn(-c2ccc(C(N)=O)c(NC(C)(C)C)c2)c2cccc(-n3cnc(-c4cccnc4)c3)c12` [Example 47, 2-(Tert-butylamino)-4-{3-methyl-4-(4-(pyridin-3-yl)-1H-imidazolo-1-yl)-1H-indol-1-yl}benzamide], the IC50 worked out at 0.43 µM in test [1] and 0.12 µM in test [2].

For `CC(C)c1nn(-c2ccc(C(N)=O)cc2Cl)c2cccc(-n3cnc(-c4cnn(C)c4)c3)c12` [Example 5, 3-Chloro-4-(3-isopropyl-4-(4-(1-methyl-1H-pyrazol-4-yl)-1H-imidazol-1-yl)-1H-indazol-1-yl)benzamide], the values for the IC50 in test [1] and in test [2] were 0.24 µM and 0.27 µM, respectively.

Take `COc1ccc2ccn(-c3ccc(C(N)=O)c(NC4CCC(O)CC4)c3)c2c1` (stereo not drawn) [Comparative Example 1, reference compound]: in test [1], the IC50 is > 100 µM.

`CC(C)(C)Nc1cc(-n2nc(C(F)(F)F)c3c(-n4cnc(-c5cccnc5)c4)cccc32)ccc1C(N)=O` [Example 16, 2-(Tert-butylamino)-4-(4-(4-(pyridin-3-yl)-1H-imidazol-1-yl)-3-(trifluoromethyl)-1H-indazol-1-yl)benzamide]: the IC50 in test [1] is 0.29 µM; in test [2], 0.03 µM.

Consider `CC(C)c1nn(-c2ccc(C(N)=O)cc2Cl)c2cccc(-n3cnc(-c4cccnc4)c3)c12` [Example 3, 3-Chloro-4-(3-isopropyl-4-(4-(pyridin-3-yl)-1H-imidazol-1-yl)-1H-indazol-1-yl)benzamide], for which the IC50 turned out to be 0.74 µM in test [1] and 0.56 µM in test [2].

For the molecule `NC(=O)c1ccc(-n2ccc3ccccc32)c(Cl)c1` [Comparative Example 6, reference compound], the IC50 in test [1] was > 100 µM.

On to `COc1ccc2c(c1)cc(C)n2-c1ccc(C(N)=O)c(Nc2ccccc2)c1` [Comparative Example 5, reference compound], for which the IC50 is > 100 µM in test [1] and > 10 µM in test [2].

As to `CC(C)c1nn(-c2ccc(C(N)=O)nc2)c2cccc(-n3cnc(-c4cnn(C)c4)c3)c12` [Example 7, 5-(3-Isopropyl-4-(4-(1-methyl-1H-pyrazol-4-yl)-1H-imidazol-1-yl)-1H-indazol-1-yl)-2-pyridinecarboxyamide], the results for the half-inhibitory concentration (IC50) in test [1] and in test [2] were 0.37 µM and 1.19 µM, respectively.

In the case of `CCCc1cn(-c2ccc(C(N)=O)cc2CC)c2cccc(-n3cnc(-c4cnn(C)c4)c3)c12` [Example 49, 3-Ethyl-4-{4-(4-(1-methyl-1H-pyrazolo-4-yl)-3-propyl-1H-imidazolo-1-yl)-1H-indol-1-yl}benzamide], the IC50 in test [1] was 0.12 µM; in test [2], 0.03 µM.

As for `COc1cccc2c1ccn2-c1ccc(C(N)=O)c(NC2CCC(O)CC2)c1` (stereo not drawn) [Comparative Example 2, reference compound], in test [1], the IC50 is > 100 µM.

As to `COc1cc2ccn(-c3ccc(C(N)=O)c(Nc4ccccc4)c3)c2cc1OC` [Comparative Example 4, reference compound], the IC50 in test [1] and in test [2] was > 10 µM in each case.

With `CC(C)c1cn(-c2ccc(C(N)=O)c(NC(C)(C)C)c2)c2cccc(-n3cnc(-c4cnn(C)c4)c3)c12` [Example 52, 2-(Tert-butylamino)-4-{3-isopropyl-4-(4-(1-methyl-1H-pyrazolo-4-yl)-1H-imidazolo-1-yl)-1H-indol-1-yl}benzamide], the IC50 in test [1] worked out at 0.42 µM; in test [2], 0.02 µM.

For `NC(=O)c1ccc(-n2nc(C(F)(F)F)c3c(-n4cnc(-c5cccnc5)c4)cccc32)c(N)c1` [Example 25, 3-Amino-4-(4-(4-(pyridin-3-yl)-1H-imidazol-1-yl)-3-(trifluoromethyl)-1H-indazol-1-yl)benzamide], the IC50 turned out to be 0.1 µM in test [1] and 0.17 µM in test [2].

Turning to `CCc1cn(-c2ccc(C(N)=O)c(NC(C)(C)C)c2)c2cccc(-n3cnc(-c4cnn(C)c4)c3)c12` [Example 48, 2-(Tert-butylamino)-4-{3-ethyl-4-(4-(1-methyl-1H-pyrazolo-4-yl)-1H-imidazolo-1-yl)-1H-indol-1-yl}benzamide], the figures for the IC50 in test [1] and in test [2] were 0.26 µM and 0.01 µM, respectively.

As to `Cn1cc(-c2cn(-c3cccc4c3c(C(F)(F)F)nn4-c3ccc(C(N)=O)c(NC(C)(C)C)c3)cn2)cn1` [Example 14, 2-(Tert-butylamino)-4-(4-(4-(1-methyl-1H-pyrazol-4-yl)-1H-imidazol-1-yl)-3-(trifluoromethyl)-1H-indazol-1-yl)benzamide], the IC50 in test [1] came out at 0.27 µM; in test [2], 0.01 µM.

For the molecule `Cn1cc(-c2cn(-c3cccc4c3c(C(F)(F)F)nn4-c3ccc(C(N)=O)cc3N)cn2)cn1` [Example 24, 3-Amino-4-(4-(4-(1-methyl-1H-pyrazol-4-yl)-1H-imidazol-1-yl)-3-(trifluoromethyl)-1H-indazol-1-yl)benzamide], the IC50 in test [1] was 0.08 µM; in test [2] it was 0.13 µM.

On to `CC(C)Nc1cc(C(N)=O)ccc1-n1nc(C(C)C)c2c(-n3cnc(-c4cnn(C)c4)c3)cccc21` [Example 12, 4-(3-Isopropyl-4-(4-(1-methyl-1H-pyrazol-4-yl)-1H-imidazol-1-yl)-1H-indazol-1-yl)-3-(isopropylamino)benzamide], for which the figures for the IC50 in test [1] and in test [2] were 0.12 µM and 0.06 µM, respectively.

As to `CCc1cc(C(N)=O)ccc1-n1cc(C(C)C)c2c(-n3cnc(-c4cnn(C)c4)c3)cccc21` [Example 51, 3-Ethyl-4-{3-isopropyl-4-(4-(1-methyl-1H-pyrazolo-4-yl)-1H-imidazolo-1-yl)-1H-indol-1-yl}benzamide], the figures for the IC50 in test [1] and in test [2] were 0.16 µM and 0.06 µM, respectively.

Take `CC(C)Nc1cc(C(N)=O)ccc1-n1nc(C(F)(F)F)c2c(-n3cnc(-c4cnn(C)c4)c3)cccc21` [Example 20, 3-(Isopropylamino)-4-(4-(4-(1-methyl-1H-pyrazol-4-yl)-1H-imidazol-1-yl)-3-(trifluoromethyl)-1H-indazol-1-yl)benzamide]: the IC50 in test [1] is 0.14 µM; in test [2] it was 0.09 µM.

As for `CCNc1cc(-n2nc(C(F)(F)F)c3c(-n4cnc(-c5cnn(C)c5)c4)cccc32)ccc1C(N)=O` [Example 15, 2-(Ethylamino)-4-(4-(4-(1-methyl-1H-pyrazol-4-yl)-1H-imidazol-1-yl)-3-(trifluoromethyl)-1H-indazol-1-yl)benzamide], the IC50 in test [1] amounted to 0.23 µM; in test [2], 0.02 µM.

On to `CC(C)Nc1cc(C(N)=O)ccc1-n1nc(C(F)(F)F)c2c(-n3cnc(-c4cccnc4)c3)cccc21` [Example 22, 3-(Isopropylamino)-4-(4-(4-(pyridin-3-yl)-1H-imidazol-1-yl)-3-(trifluoromethyl)-1H-indazol-1-yl)benzamide], for which the IC50 in test [1] was 0.14 µM; in test [2] it was 0.12 µM.

For the molecule `COc1cc2ccn(-c3ccc(C#N)c(Nc4ccccc4)c3)c2cc1OC` [Comparative Example 3, reference compound], the IC50 in test [1] was > 10 µM.
